{
  "source": "BindingDB's records for doi:10.1016/j.bmcl.2009.10.054",
  "about": "(AstraZeneca, 2009)",
  "test": "Inhibition of erythropoietin-stimulated STAT5 expressed in human U2OS cells",
  "data": [
    {"smiles": "Cc1cc(Nc2nc(N[C@@H](C)c3ncc(F)cn3)c(C#N)nc2C)[nH]n1", "note": "[(S)-3-(1-(5-fluoropyrimidin-2-yl)ethylamino)-6-methyl-5-(5-methyl-1H-pyrazol-3-ylamino)pyrazine-2-carbonitrile]", "values": [
      {"measurement": "EC50", "result": 40, "unit": "nM"}
    ]}
  ]
}
